pKi: −log10 of the molar value. Active and inactive are the calls of the source. The rule behind the calls is not given here.

Experiment [1] has as its target 5-hydroxytryptamine receptor 2A (Sus scrofa, UniProt P50129). In words: Displacement of [3H]Ketanserin from 5-HT2 receptor in pig cortex membranes. The format is cell membranes. For orientation: In a radioligand displacement assay an active substance lowers the binding of a labelled ligand.
Experiment [2] concerns the target T1, D(3) dopamine receptor (Homo sapiens, UniProt P35462). In words: Displacement of [3H]Spiperone from human dopamine D3 receptor expressed in CHO cells. The format is cell-based.
The target of experiment [3] is D(1A) dopamine receptor (Sus scrofa, UniProt P50130). In words: Displacement of [3H]SCH23390 from dopamine D1 receptor in pig striatal membranes. The format is cell membranes, Striatum, Membrane.
Sequence of D(1A) dopamine receptor (P50130 whole entry): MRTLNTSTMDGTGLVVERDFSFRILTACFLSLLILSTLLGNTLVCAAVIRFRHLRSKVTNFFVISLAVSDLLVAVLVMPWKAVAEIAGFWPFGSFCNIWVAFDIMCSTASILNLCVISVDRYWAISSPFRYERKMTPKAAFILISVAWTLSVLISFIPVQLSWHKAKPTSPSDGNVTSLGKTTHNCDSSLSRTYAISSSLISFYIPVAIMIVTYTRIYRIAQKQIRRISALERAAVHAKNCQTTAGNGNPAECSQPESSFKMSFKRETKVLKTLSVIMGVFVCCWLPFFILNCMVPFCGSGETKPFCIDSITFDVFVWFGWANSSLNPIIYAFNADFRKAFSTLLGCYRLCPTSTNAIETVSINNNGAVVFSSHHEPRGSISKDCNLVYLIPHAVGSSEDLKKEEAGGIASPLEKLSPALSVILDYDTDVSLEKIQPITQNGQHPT
Experiment [4] in a line: Displacement of [3H]Prazosin from adrenergic alpha1 receptor in pig cerebral cortex homogenates. The format is tissue-based, Sus scrofa.
Experiment [5] concerns the target T2, D(4) dopamine receptor (Homo sapiens, UniProt P21917).
T2 sequence (P21917 whole entry): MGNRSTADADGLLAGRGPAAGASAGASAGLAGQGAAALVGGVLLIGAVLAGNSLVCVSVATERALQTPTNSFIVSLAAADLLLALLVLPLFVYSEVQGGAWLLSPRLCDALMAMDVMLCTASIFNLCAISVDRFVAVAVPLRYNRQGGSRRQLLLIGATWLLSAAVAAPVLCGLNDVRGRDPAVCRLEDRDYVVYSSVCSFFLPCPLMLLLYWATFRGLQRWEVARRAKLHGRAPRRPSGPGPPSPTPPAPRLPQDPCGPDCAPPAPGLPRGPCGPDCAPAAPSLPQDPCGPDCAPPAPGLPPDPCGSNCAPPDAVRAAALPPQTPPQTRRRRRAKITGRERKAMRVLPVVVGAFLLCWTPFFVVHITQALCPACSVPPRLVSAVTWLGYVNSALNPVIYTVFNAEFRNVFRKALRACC
In words: Displacement of [3H]Spiperone from human dopamine D4.4 receptor expressed in CHO cells. The format is cell-based.

Experiment [6] deals with T3, D(2) dopamine receptor (Homo sapiens, UniProt P14416). In words: Displacement of [3H]Spiperone from human dopamine D2 short receptor expressed in CHO cells. The format is cell-based.
T3 sequence (P14416 whole entry): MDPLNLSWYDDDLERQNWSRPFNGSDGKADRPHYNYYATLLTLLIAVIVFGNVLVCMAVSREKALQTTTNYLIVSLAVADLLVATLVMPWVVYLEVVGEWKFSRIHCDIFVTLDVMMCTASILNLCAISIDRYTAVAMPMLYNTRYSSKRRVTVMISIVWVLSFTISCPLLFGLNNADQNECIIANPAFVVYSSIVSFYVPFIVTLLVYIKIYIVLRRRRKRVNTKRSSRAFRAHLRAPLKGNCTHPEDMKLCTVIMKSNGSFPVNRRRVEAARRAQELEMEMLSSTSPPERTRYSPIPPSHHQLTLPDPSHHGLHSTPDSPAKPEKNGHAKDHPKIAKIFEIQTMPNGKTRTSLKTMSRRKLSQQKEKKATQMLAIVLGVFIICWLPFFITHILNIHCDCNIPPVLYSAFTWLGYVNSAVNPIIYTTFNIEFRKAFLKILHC
The target of experiment [7] is T3, D(2) dopamine receptor. In words: Displacement of [3H]Spiperone from human dopamine D2 long receptor expressed in CHO cells. The format is cell-based.
The species entered for experiment [8] is Homo sapiens. In words: Selectivity ratio of Ki for wild type human dopamine D3 receptor to Ki for human dopamine D3 receptor V2.61F mutant.
The species named for experiment [9] is Homo sapiens. In words: Selectivity ratio of Ki for wild type human dopamine D3 receptor to Ki for human dopamine D3 receptor F6.52W mutant.
The target of experiment [10] is T1, D(3) dopamine receptor. In words: Agonist activity at human dopamine D3 receptor expressed in dhfr deficient CHO cells assessed as [3H]thymidine incorporation. The format is functional, cell-based. In general terms: Dividing cells build labelled thymidine or BrdU into new DNA.

T1 sequence (P35462 whole entry): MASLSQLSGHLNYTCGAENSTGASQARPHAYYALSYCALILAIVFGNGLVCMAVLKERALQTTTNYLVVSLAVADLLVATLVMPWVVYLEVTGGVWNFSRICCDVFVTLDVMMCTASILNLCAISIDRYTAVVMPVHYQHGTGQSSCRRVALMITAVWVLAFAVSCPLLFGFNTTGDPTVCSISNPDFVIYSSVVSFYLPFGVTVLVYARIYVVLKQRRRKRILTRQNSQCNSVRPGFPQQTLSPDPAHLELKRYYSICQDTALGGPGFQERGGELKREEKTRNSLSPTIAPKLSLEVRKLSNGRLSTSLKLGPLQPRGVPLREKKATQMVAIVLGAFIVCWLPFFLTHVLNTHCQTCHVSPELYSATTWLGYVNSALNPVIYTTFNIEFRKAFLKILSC
Sequence of 5-hydroxytryptamine receptor 2A (P50129 whole entry): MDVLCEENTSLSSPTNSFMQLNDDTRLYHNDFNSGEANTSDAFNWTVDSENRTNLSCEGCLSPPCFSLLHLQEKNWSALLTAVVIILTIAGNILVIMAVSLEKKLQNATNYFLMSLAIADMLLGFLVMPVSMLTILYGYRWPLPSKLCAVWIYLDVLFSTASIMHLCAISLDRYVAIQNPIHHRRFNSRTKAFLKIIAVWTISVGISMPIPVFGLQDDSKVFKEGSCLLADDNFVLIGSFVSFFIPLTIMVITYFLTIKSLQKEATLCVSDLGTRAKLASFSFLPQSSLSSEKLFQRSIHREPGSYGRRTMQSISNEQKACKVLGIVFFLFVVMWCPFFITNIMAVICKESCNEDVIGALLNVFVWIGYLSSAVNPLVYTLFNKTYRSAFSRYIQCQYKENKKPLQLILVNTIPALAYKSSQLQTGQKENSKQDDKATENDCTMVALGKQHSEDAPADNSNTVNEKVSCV

For `Cc1ccc(C)c(C(=O)CCCN2CCC(O)(c3cc(C)ccc3C)CC2)c1`, the pKi – broadly, −log10 of the Ki, conventionally taken in molar units – in experiment [1] is 5.77; in experiment [2], 6.55; in [3] it was 6.23; in experiment [4], 7.96; in experiment [5] it was 7.52.

For the compound `O=C(CCCN1CCC(O)(c2cc3ccc2CCc2ccc(cc2)CC3)CC1)c1ccc(F)cc1`, the pKi in experiment [1] is 7.72; in [2] it was 7.28; in [3], 7.00; in experiment [4], 8.54; in [6], 8.44; in [7] it was 8.32. Moreover, in experiment [5], the pKi was 9.14.

`O=C(CCCN1CCC(O)(c2ccc(Cl)cc2)CC1)c1ccc(F)cc1` [HALOPERIDOL] had a pKi in experiment [4] of 8.17.

On to `COc1ccccc1N1CCN(CCCCNC(=O)c2cc3ccccc3s2)CC1`, for which the pKi in experiment [1] is 6.46; in [4] it was 7.85.

Consider `O=C(CCCN1CCN(c2ccc(Cl)cc2)CC1)c1cc2ccc1CCc1ccc(cc1)CC2`, for which the pKi in experiment [1] is 5.77; in experiment [2], 6.39; in [3] it was 5.27; in experiment [4], 6.74; in experiment [6] it was 6.36; in [7] it was 6.21. The compound also had a pKi in [5] of 6.92.

As to `COc1ccccc1N1CCN(CCCCNC(=O)c2cc(C)ccc2C)CC1`, the pKi was 5.82 in [1]; 8.33 in experiment [2]; 5.68 in experiment [3]; 7.85 in [4]; 7.77 in [6]; 7.66 in experiment [7]. Moreover, the pKi in experiment [5] is 7.64.

Regarding `Cc1ccc(C)c(N2CCN(CCCCNC(=O)c3cc4ccccc4s3)CC2)c1`, the pKi in experiment [1] was 5.82; in experiment [2] it was 8.60; in [3], 5.62; in [4], 7.70; in experiment [6], 7.19; in experiment [7], 7.08. In experiment [5], this compound showed a pKi of 6.52. Moreover, the Ratio Ki in experiment [8] came to 40; in experiment [9], 38.

As for `O=C(CCCN1CCN(c2ccc(Cl)cc2)CC1)c1ccc(F)cc1`, the pKi in experiment [1] is 6.36; in experiment [3] it was 6.47; in [4] it was 7.89; in [6], 7.21; in experiment [7], 7.20; in [5] it was 8.12.

As for `Cc1ccc(C)c(C(=O)NCCCCN2CCN(c3cc(C)ccc3C)CC2)c1`, the pKi was 5.44 in [1]; 7.55 in experiment [2]; 5.49 in experiment [3]; 7.54 in experiment [4]; 7.07 in experiment [6]; 7.00 in experiment [7]. For the same compound, in experiment [5], the pKi was 6.66.

Turning to `O=C(CCCN1CCC(O)(c2cc3ccc2CCc2ccc(cc2)CC3)CC1)c1cc2ccc1CCc1ccc(cc1)CC2`, the pKi was 5.92 in experiment [1]; 7.42 in [2]; 5.31 in [3]; 5.55 in experiment [4]; 7.52 in experiment [5].

Consider `O=C(NCCCCN1CCN(c2cc3ccc2CCc2ccc(cc2)CC3)CC1)c1cc2ccccc2s1`, for which the pKi is 6.00 in experiment [1]; 8.80 in experiment [2]; 5.40 in experiment [3]; 6.31 in [4]; 6.82 in experiment [6]; 7.08 in experiment [7]. The same compound showed a pKi in experiment [5] of 6.06. For the same compound, the Ratio Ki in experiment [8] was 24; in [9] it was 2.4. Further, the outcome in experiment [10] was inactive.

Take `O=C(CCCN1CCN(c2cc3ccc2CCc2ccc(cc2)CC3)CC1)c1ccc(F)cc1`: the pKi is 6.35 in experiment [1]; 8.00 in [2]; 6.23 in experiment [3]; 7.15 in experiment [4]; 7.66 in experiment [6]; 7.72 in [7]. The compound further gave a pKi in experiment [5] of 6.92.

`COc1ccccc1N1CCN(CCCCNC(=O)c2cc3ccc2CCc2ccc(cc2)CC3)CC1`: the pKi in experiment [1] is 5.66; in experiment [2], 9.31; in experiment [3] it was 6.17; in experiment [4], 8.38; in experiment [6] it was 7.74; in [7], 7.62. The pKi in [5] was 7.96.

As to `Cc1ccc(C)c(C(=O)CCCN2CCC(O)(c3ccc(Cl)cc3)CC2)c1`, the pKi is 6.16 in [1]; 7.14 in [2]; 5.42 in experiment [3]; 7.46 in experiment [4]; 7.37 in experiment [6]; 7.82 in [7]. In [5], this compound gave a pKi of 7.21.

Consider `Cc1ccc(C)c(N2CCN(CCCC(=O)c3ccc(F)cc3)CC2)c1`, for which the pKi is 6.07 in [1]; 7.12 in [2]; 6.68 in experiment [3]; 8.49 in [4]; 7.80 in [6]; 7.89 in experiment [7]. Further, in experiment [5], the pKi is 7.77.

As for `Cc1ccc(C)c(C2(O)CCN(CCCC(=O)c3ccc(F)cc3)CC2)c1`, the pKi in experiment [1] was 6.96; in [2] it was 7.57; in experiment [3] it was 7.72; in [4] it was 8.89; in [6], 8.19; in experiment [7], 8.47. In addition, the pKi in experiment [5] is 7.70.

Regarding `O=C(NCCCCN1CCN(c2cc3ccc2CCc2ccc(cc2)CC3)CC1)c1cc2ccc1CCc1ccc(cc1)CC2`, the pKi in experiment [1] is 5.09; in [2], 8.40; in [3] it was 5.11; in [4], 6.08; in experiment [6] it was 7.32; in experiment [7], 7.49. Moreover, in experiment [5], the pKi was 6.77.

As to `O=C(CCCN1CCC(O)(c2ccc(Cl)cc2)CC1)c1cc2ccc1CCc1ccc(cc1)CC2`, the pKi was 5.62 in experiment [1], 7.77 in experiment [2], 5.01 in experiment [3] and 7.41 in experiment [5].
